Measurements as given in paper PMC7684313, “In vitro and in vivo pharmacological activity of minor cannabinoids isolated from Cannabis sativa” (Scientific Reports, 2020).
“And” between values parts separate entries of the source, which are not always exact repeats. Equal values may be shown once. “Also recorded” adds a separate entry of the source. Read-outs that look alike come from different tables or passages of the source. Marks after values point to notes of the source that are not given here.

Legend:
CB1R = conditions: read-out: affinity for CB1R (previous reports); cited from earlier work
hCB2R [1] = molecular target: T1, hCB2R (Homo sapiens, UniProt P34972); assay: Ligand bias between cAMP inhibition and βarrestin2 recruitment at hCB2R (operational model); type: cell-based; parameters: expressed in transfected cells; membranes; conditions: ∆∆LogR > 0 bias for inhibition of cAMP, < 0 bias for βarrestin2; CP55,940 reference agonist
Experimental: (§1) Figure 8 Analysis of ligand bias for phytocannabinoids at hCB1R (a) and hCB2R (b).
(§2) Concentration–response curves (CRC) were fit using non-linear regression with variable slope (4 parameters) and used to calculate EC50, Emin, and Emax (GraphPad, Prism, v. 8.0). […] In vivo data are presented as % MPE for catalepsy (MPE = 60 s) and anti-nociception (MPE = 20 s), °C for body temperature, and distance travelled (m) and % time in the centre quadrant in 5 min for OFT. Post-hoc analyses were performed using Tukey’s (one-way ANOVA) test. Homogeneity of variance was confirmed using Bartlett’s test. All data were evaluated for possible outliers using Grubb’s test in GraphPad.

CB2R = conditions: read-out: affinity for CB2R (previous reports); cited from earlier work
hCB2R [2] = molecular target: T1, hCB2R; assay: hCB2R-dependent inhibition of FSK-stimulated cAMP accumulation (HitHunter CHO cells); type: cell-based; parameters: expressed in transfected cells; membranes
hCB2R [3] = molecular target: T1, hCB2R; assay: [^3H]CP55,940 displacement from hCB2R CHO cell membranes
hCB2R [4] = molecular target: T1, hCB2R; assay: hCB2R-dependent recruitment of βarrestin2 (PathHunter CHO cells); type: cell-based; parameters: expressed in transfected cells; membranes; conditions: CHO
hCB1R [5] = molecular target: T2, hCB1R (Homo sapiens, UniProt P21554); assay: Ligand bias between cAMP inhibition and βarrestin2 recruitment at hCB1R (operational model); type: cell-based; conditions: ∆∆LogR > 0 bias for inhibition of cAMP, < 0 bias for βarrestin2; CP55,940 reference agonist
T2 construct: expressed in transfected cells; membranes
Experimental: as §1, §2

hCB1R [6] = molecular target: T2, hCB1R; assay: cell-based; conditions: CHO; read-out: hCB1R Emax, recruitment of βarrestin2
hCB2R [7] = molecular target: T1, hCB2R; assay: biochemical
hCB1R [8] = molecular target: T2, hCB1R; assay: cell-based; type: cell-based
C57BL/6 mice [9] = assay: Time in the centre quadrant of the OFT (anxiety-like behaviour); type: in vivo; conditions: 10 mg/kg i.p.; 1 h post-injection
Experimental: (§3) Asterisk colour matches the treatment group assessed.
as §2

hCB1R [10] = molecular target: T2, hCB1R; assay: biochemical; type: binding
C57BL/6 mice [11] = assay: Nociception in the tail flick assay (tetrad); type: in vivo; conditions: 3 mg/kg i.p.; 15 min post-injection
Experimental: as §3, §2

T2 sequence (P21554 whole entry): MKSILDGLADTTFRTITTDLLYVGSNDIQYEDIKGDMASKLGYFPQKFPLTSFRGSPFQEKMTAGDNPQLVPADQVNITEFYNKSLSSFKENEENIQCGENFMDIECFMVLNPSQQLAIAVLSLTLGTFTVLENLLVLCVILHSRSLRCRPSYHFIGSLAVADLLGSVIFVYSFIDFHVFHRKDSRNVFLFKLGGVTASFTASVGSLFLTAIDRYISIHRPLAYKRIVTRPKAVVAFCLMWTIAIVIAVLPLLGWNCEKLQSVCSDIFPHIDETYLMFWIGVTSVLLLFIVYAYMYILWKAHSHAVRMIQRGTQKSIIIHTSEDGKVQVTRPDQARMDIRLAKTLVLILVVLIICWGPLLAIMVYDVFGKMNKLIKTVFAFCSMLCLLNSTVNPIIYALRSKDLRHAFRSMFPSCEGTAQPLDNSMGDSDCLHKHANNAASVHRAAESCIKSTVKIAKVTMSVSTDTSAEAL
T1 sequence (P34972 whole entry): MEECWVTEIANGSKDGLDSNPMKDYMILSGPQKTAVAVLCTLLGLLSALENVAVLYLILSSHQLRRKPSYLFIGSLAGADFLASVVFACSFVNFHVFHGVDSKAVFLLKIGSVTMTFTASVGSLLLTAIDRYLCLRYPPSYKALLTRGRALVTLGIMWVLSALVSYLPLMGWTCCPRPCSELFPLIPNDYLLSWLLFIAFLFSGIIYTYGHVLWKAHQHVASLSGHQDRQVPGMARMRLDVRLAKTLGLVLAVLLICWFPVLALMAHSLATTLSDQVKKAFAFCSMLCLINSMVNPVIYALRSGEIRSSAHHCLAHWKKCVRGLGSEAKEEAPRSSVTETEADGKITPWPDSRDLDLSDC

In the case of `CCCCCc1cc(O)c(C/C=C(\C)CCC=C(C)C)c(O)c1` [CBG, cannabigerol], the Ki (CB1R) is listed as over 1 µM, the “ligand bias at hCB2R (∆∆LogR), in words” value (hCB2R [1]) is listed as “bias for inhibition of cAMP relative to βarrestin2” and the Ki (CB2R) is listed as over 1 µM. The “agonist activity in hCB2R cAMP inhibition, in words” value (hCB2R [2]; 0.1 nM–10 µM, relative to CP55,940) was “weak partial agonist”, the Emax (hCB2R [2]; CHO) was 39 ± 11% and the EC50 (hCB2R [2]; HitHunter CHO hCB2R cells, 90 min, 95% CI in brackets, read-out: hCB2R EC50, inhibition of FSK-stimulated cAMP accumulation) was 0.13 µM. The “hCB2R Emin” value (hCB2R [3]; bottom of the concentration–response curve of [^3H]CP55,940 displacement, %CP55,940 response, mean ± SEM) was 32 ± 8.1%, the “extent of [^3H]CP55,940 displacement from hCB2R, in words” value (hCB2R [3]; concentration range 0.1 nM–10 µM) was “displaced [^3H]CP55,940 from hCB2R to an extent that was not different from CP55,940” and the Emax (hCB2R [4]) was 22 ± 1.2%. For the same compound, the “ligand bias at hCB1R (∆∆LogR), in words” value (hCB1R [5]) was “bias for the inhibition of cAMP relative to βarrestin2”, the Emax (hCB1R [6]) was 0.41 ± 0.45% and the Ki (hCB2R [7]) was 0.5 µM and 0.49 µM. The “agonist activity in hCB1R cAMP inhibition, in words” value (hCB1R [8]) was “weak partial agonist”, the Emax (hCB1R [8]; CHO, read-out: hCB1R Emax, inhibition of FSK-stimulated cAMP accumulation) was 68 ± 2.4% and the EC50 (hCB1R [8]; HitHunter CHO hCB1R cells, 90 min, 95% CI in brackets, read-out: hCB1R EC50, inhibition of FSK-stimulated cAMP accumulation) was 0.12 µM. The “time in the central quadrant of the OFT (modelled anxiolytic effect), in words” value (C57BL/6 mice [9]) was “anxiolytic-like effect”, the Ki (hCB1R [10]) was 1.3 µM and the “extent of [^3H]CP55,940 displacement from hCB1R, in words” value (hCB1R [10]) was “weakly displaced [^3H]CP55,940 at concentrations ≥ 1 µM”. For the same compound, the “hCB1R Emin” value (hCB1R [10]) was 49 ± 7.2*^ % and the “anti-nociceptive effect (tail flick latency), in words” value (C57BL/6 mice [11]) was “weak anti-nociceptive effect; also recorded: small but statistically significant anti-nociceptive effect”.
